Results taken from patent publication US12233047B2, “Pharmaceutical combination and use thereof” (ASCENTAGE PHARMA (SUZHOU) CO., LTD., priority 2019, dated 2025).
Residue numbers refer to the chain shown, from its start.

Columns and labels:
[1] = molecular target: T1, FLT3 (K663Q) (Homo sapiens, UniProt P36888, K663Q); assay: KINOMEscan kinase binding assay, FLT3 (K663Q)
T1 construct: host or cells: T7 phage in E. coli (BL21-derived) or HEK-293
T1 sequence (P36888 27-993 K663Q): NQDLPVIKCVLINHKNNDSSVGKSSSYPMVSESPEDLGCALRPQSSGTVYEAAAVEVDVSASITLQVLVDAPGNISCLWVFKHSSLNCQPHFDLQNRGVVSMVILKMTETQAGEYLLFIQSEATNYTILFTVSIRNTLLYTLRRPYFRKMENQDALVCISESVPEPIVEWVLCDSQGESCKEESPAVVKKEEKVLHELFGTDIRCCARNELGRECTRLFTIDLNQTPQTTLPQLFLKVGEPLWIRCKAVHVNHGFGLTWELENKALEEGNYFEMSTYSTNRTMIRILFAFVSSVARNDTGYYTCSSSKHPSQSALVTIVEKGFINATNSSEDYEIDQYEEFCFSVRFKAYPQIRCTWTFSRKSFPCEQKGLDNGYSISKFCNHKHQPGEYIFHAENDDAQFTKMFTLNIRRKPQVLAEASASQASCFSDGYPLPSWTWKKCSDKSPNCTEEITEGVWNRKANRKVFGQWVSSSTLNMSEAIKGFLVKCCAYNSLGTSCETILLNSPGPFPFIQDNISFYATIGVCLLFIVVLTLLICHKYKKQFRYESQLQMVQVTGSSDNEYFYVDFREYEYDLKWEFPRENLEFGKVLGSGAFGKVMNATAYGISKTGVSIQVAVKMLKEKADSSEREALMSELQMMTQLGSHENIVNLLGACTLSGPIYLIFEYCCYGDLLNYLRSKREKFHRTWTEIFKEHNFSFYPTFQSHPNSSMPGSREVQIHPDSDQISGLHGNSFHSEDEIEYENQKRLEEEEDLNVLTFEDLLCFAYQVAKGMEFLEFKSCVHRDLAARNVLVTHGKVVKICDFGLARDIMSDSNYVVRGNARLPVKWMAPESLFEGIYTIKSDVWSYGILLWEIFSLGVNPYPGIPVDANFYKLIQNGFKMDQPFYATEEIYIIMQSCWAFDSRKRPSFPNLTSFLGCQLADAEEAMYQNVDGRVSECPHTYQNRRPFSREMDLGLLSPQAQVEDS
Experimental: (§1) The kinase assay was conducted using KINOMEscan™.
(§2) Kinase-tagged T7 phage strains were grown in parallel in 24-well blocks in an E. coli host derived from the BL21 strain. E. coli were grown to log-phase and infected with T7 phage from a frozen stock (multiplicity of infection=0.4) and incubated with shaking at 32° C. until lysis (90-150 minutes). The lysates were centrifuged (6,000×g) and filtered (0.2 μm) to remove cell debris. The remaining kinases were produced in HEK-293 cells and subsequently tagged with DNA for qPCR detection. Streptavidin-coated magnetic beads were treated with biotinylated small molecule ligands for 30 minutes at room temperature to generate affinity resins for kinase assays. The liganded beads were blocked with excess biotin and washed with blocking buffer (SeaBlock (Pierce), 1% BSA, 0.05% Tween 20, 1 mM DTT) to remove unbound ligand and to reduce non-specific phage binding. Binding reactions were assembled by combining kinases, liganded affinity beads, and test compound (Compound 23) in 1× binding buffer (20% SeaBlock, 0.17×PBS, 0.05% Tween 20, 6 mM DTT). Test compound were prepared as 40× stocks in 100% DMSO and directly diluted into the assay. All reactions were performed in polypropylene 384-well plates in a final volume of 0.04 ml. […] The kinase concentration in the eluates was measured by qPCR. […]

[2] = molecular target: T2, FLT3 (R834Q) (Homo sapiens, UniProt P36888, R834Q); assay: KINOMEscan kinase binding assay, FLT3 (R834Q)
T2 construct: host or cells: T7 phage in E. coli (BL21-derived) or HEK-293
T2 sequence (P36888 27-993 R834Q): T1 sequence (P36888 27-993 K663Q) with Q637K, R808Q
Experimental: as §1, §2

## Cc1ccc(C(=O)Nc2ccc(CN3CCN(C)CC3)c(C(F)(F)F)c2)cc1C#Cc1cnc2[nH]ncc2c1 [Compound 23, 3-(2-(1H-pyrazolo[3,4-b]pyridin-5-yl)ethynyl)-4-methyl-N-(4-((4-methylpiperazin-1-yl)methyl)-3-(trifluoromethyl)phenyl)benzamide]
[1]; 10 nM
  % Ctrl@10 nM: 5 % Ctrl
[1]; 100 nM
  % Ctrl@100 nM: 0.6 % Ctrl
[2]; 10 nM
  % Ctrl@10 nM: 23 % Ctrl
[2]; 100 nM
  % Ctrl@100 nM: 15 % Ctrl
